Measured values: ChEMBL document CHEMBL1201862, “PubChem BioAssay data set” (2004)
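Each compound was tested at five concentrations against cells in 96-well plates for 48 hours. GI50: concentration for 50% inhibition of growth.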 Calls of active or inactive are those of the source. No stated cut-off is given here; in the data, active = GI50 up to about 1.1 µM and inactive = higher.

How the values were obtained:
Experiment in all cases: NCI anticancer screen, dose series, 48 h
[1] = system: SN12C
[2] = system: XF498
[3] = system: SF-268
[4] = system: UACC-257
[5] = system: NCI/ADR-RES
[6] = system: KM12
[7] = system: MDA-N
[8] = system: SF-295
[9] = system: UACC-62
[10] = system: OVCAR-8
[11] = system: TK-10
[12] = system: A498
[13] = system: HCT-116
[14] = system: MOLT-4
[15] = system: OVCAR-3
[16] = system: NCI-H226
[17] = system: OVCAR-4
[18] = system: LOX IMVI
[19] = system: Hs-578T
[20] = system: HCT-15

Row | SMILES | GI50 [1] | GI50 [2] | GI50 [3] | GI50 [4] | GI50 [5] | GI50 [6] | GI50 [7] | GI50 [8] | GI50 [9] | GI50 [10] | GI50 [11] | GI50 [12] | GI50 [13] | GI50 [14] | GI50 [15] | GI50 [16] | GI50 [17] | GI50 [18] | GI50 [19] | GI50 [20] [µM]
1 | CN(C)C(=S)NC(=S)Nc1ccc2ccccc2c1 | 2.69 µM (inactive) | 16.1 µM (inactive) | 10.3 µM (inactive) | 8.95 µM (inactive) | 13.8 µM (inactive) | 12.4 µM (inactive) | 12.9 µM (inactive) | 4.55 µM (inactive) | 2.14 µM (inactive) | 9.64 µM (inactive) | 22.7 µM (inactive) | 12.6 µM (inactive) | 6.65 µM (inactive) | 4.93 µM (inactive) | 14.4 µM (inactive) | 12.1 µM (inactive) | 24.7 µM (inactive) | 6.64 µM (inactive) | 33.1 µM (inactive) | 9.89
2 | Cc1cc(N(CCC#N)CCC#N)ccc1CC1N=C(c2ccccc2)OC1=O (centres undefined) | > 100 µM (inactive) | > 100 µM (inactive) | > 100 µM (inactive) | > 100 µM (inactive) |  | > 100 µM (inactive) |  | > 100 µM (inactive) | > 100 µM (inactive) | > 100 µM (inactive) | > 100 µM (inactive) | > 100 µM (inactive) | > 100 µM (inactive) | > 100 µM (inactive) | > 100 µM (inactive) | 64.1 µM (inactive) | > 100 µM (inactive) | > 100 µM (inactive) |  | > 100
3 | NC(=S)N/N=C\c1nccc2ccccc12 | 0.262 µM (active) |  | 0.216 µM (active) | 1.42 µM (inactive) | 0.285 µM (active) | 0.885 µM (active) | 0.429 µM (active) | 0.187 µM (active) | 0.136 µM (active) | 0.209 µM (active) | 0.551 µM (active) | 0.21 µM (active) | 0.44 µM (active) | 0.226 µM (active) | 0.281 µM (active) | 0.184 µM (active) | 0.309 µM (active) | 0.324 µM (active) | 10.7 µM (inactive) | 0.369
4 | O=C(O)C1=C(C(=O)O)Oc2ccccc2O1 | > 100 µM (inactive) | > 100 µM (inactive) | > 100 µM (inactive) | > 100 µM (inactive) |  | > 100 µM (inactive) |  | > 100 µM (inactive) | > 100 µM (inactive) | > 100 µM (inactive) | > 100 µM (inactive) | > 100 µM (inactive) | > 100 µM (inactive) | > 100 µM (inactive) | > 100 µM (inactive) | > 100 µM (inactive) | > 100 µM (inactive) | > 100 µM (inactive) |  | > 100
5 | O=C1C=C(c2ccccc2)OC1C1Sc2ccccc2NC1=O (centres undefined) | 9.23 µM (inactive) |  | 7.71 µM (inactive) | 7.6 µM (inactive) | 34.5 µM (inactive) | 7.76 µM (inactive) | 4.48 µM (inactive) | 5.98 µM (inactive) | 11.9 µM (inactive) | 9.31 µM (inactive) | 9.23 µM (inactive) | 7.89 µM (inactive) | 4.5 µM (inactive) | 10.6 µM (inactive) | 3.97 µM (inactive) | 14.5 µM (inactive) | 18.7 µM (inactive) | 13.6 µM (inactive) | 6.11 µM (inactive) | 12.7
6 | CN(C)C(=O)Oc1c(-c2ccccc2)c(=O)n2c3ccccc3n3c(=O)n(C)c(=O)c1c23 | > 100 µM (inactive) | > 100 µM (inactive) | > 100 µM (inactive) | > 100 µM (inactive) |  | > 10 µM (inactive) |  | > 100 µM (inactive) | > 100 µM (inactive) | > 100 µM (inactive) | > 100 µM (inactive) | > 100 µM (inactive) | > 100 µM (inactive) | > 100 µM (inactive) | > 100 µM (inactive) |  | > 100 µM (inactive) | > 100 µM (inactive) |  | > 100
7 | CN(C(=O)c1cccs1)C(=S)N1CCN(c2ccccn2)CC1 | > 100 µM (inactive) | > 100 µM (inactive) | > 100 µM (inactive) | > 100 µM (inactive) |  | > 100 µM (inactive) |  | > 100 µM (inactive) | > 100 µM (inactive) | > 100 µM (inactive) | > 100 µM (inactive) |  | > 100 µM (inactive) | > 100 µM (inactive) | > 100 µM (inactive) | > 100 µM (inactive) | > 100 µM (inactive) | > 100 µM (inactive) |  | > 100
8 | CCOC(=O)C1COc2cc(-c3cc(=O)c4ccccc4o3)ccc2O1 (centres undefined) | 29.5 µM (inactive) | 30.6 µM (inactive) | > 100 µM (inactive) |  |  | > 100 µM (inactive) |  | > 100 µM (inactive) | 36.8 µM (inactive) | 24.7 µM (inactive) | > 100 µM (inactive) |  | > 100 µM (inactive) | > 100 µM (inactive) | > 100 µM (inactive) |  | 42.9 µM (inactive) | 52.7 µM (inactive) |  | 
9 | O=c1sc(-c2nc3ccccc3[nH]2)c(/N=C/c2ccccc2)n1-c1ccccc1 | 73.3 µM (inactive) | 31.2 µM (inactive) | 91.4 µM (inactive) | > 100 µM (inactive) |  | 73.3 µM (inactive) |  | 40.9 µM (inactive) | 52.5 µM (inactive) | 35.6 µM (inactive) | 62.8 µM (inactive) | > 100 µM (inactive) |  | > 100 µM (inactive) | 25.6 µM (inactive) | 15.4 µM (inactive) | 6.12 µM (inactive) | 40.3 µM (inactive) |  | 74.1
10 | N#CCCN(C1=NN(C(=O)CC(=O)Nc2ccc(Cl)cc2)C(c2ccccc2)C1)c1ccc(Cl)cc1 (centres undefined) | > 100 µM (inactive) | > 100 µM (inactive) | > 100 µM (inactive) | > 100 µM (inactive) |  | > 100 µM (inactive) |  | > 100 µM (inactive) | > 100 µM (inactive) | > 100 µM (inactive) | > 100 µM (inactive) | > 100 µM (inactive) | > 100 µM (inactive) | > 100 µM (inactive) | > 100 µM (inactive) | > 100 µM (inactive) | > 100 µM (inactive) | > 100 µM (inactive) |  | > 100
11 | C=CCC(N(C)C(=O)[C@H](Cc1ccccc1)NC(=O)OCc1ccccc1)P(=O)(Oc1ccccc1)Oc1ccccc1 (some centres undefined) | > 100 µM (inactive) | > 100 µM (inactive) | > 100 µM (inactive) | > 100 µM (inactive) |  | > 100 µM (inactive) |  | > 100 µM (inactive) | > 100 µM (inactive) | > 100 µM (inactive) | > 100 µM (inactive) |  | 5.9 µM (inactive) | 2.77 µM (inactive) | > 100 µM (inactive) | > 100 µM (inactive) |  | > 100 µM (inactive) |  | 
12 | COc1ccc(CNc2cnc3ccc(N)cc3n2)cc1OC | > 100 µM (inactive) | > 100 µM (inactive) | > 100 µM (inactive) | > 100 µM (inactive) |  | > 100 µM (inactive) |  | > 100 µM (inactive) |  | > 100 µM (inactive) | 64.6 µM (inactive) |  | 53.8 µM (inactive) | > 100 µM (inactive) | > 100 µM (inactive) | > 100 µM (inactive) | > 100 µM (inactive) | > 100 µM (inactive) |  | > 100
13 | O=C(/C=C/c1ccco1)N1CCN(Cc2ccccc2)CC1 | > 100 µM (inactive) | > 100 µM (inactive) | > 100 µM (inactive) | > 100 µM (inactive) |  | > 100 µM (inactive) |  | > 100 µM (inactive) | > 100 µM (inactive) | > 100 µM (inactive) | > 100 µM (inactive) | > 100 µM (inactive) | > 100 µM (inactive) | > 100 µM (inactive) | > 100 µM (inactive) |  | > 100 µM (inactive) | > 100 µM (inactive) |  | > 100
14 | CN(C)c1n/c(=N/Cc2ccccn2)ss1 | 9.77 µM (inactive) |  | > 10 µM (inactive) | > 10 µM (inactive) | > 10 µM (inactive) | > 9.57 µM (inactive) | > 10 µM (inactive) | > 10 µM (inactive) | > 10 µM (inactive) | > 5.3 µM (inactive) | > 10 µM (inactive) | > 10 µM (inactive) | 7.98 µM (inactive) | 1.78 µM (inactive) | > 10 µM (inactive) | > 10 µM (inactive) | > 7.26 µM (inactive) | 2.51 µM (inactive) | > 10 µM (inactive) | 9.68
15 | Cn1c2c(c3ccccc31)C1CCCCCCC1C1C(=O)OC(=O)C21 (centres undefined) | 39.5 µM (inactive) | 43.6 µM (inactive) | 45.2 µM (inactive) |  |  | 38.9 µM (inactive) |  | 35.2 µM (inactive) | 59.6 µM (inactive) | 31.9 µM (inactive) | > 100 µM (inactive) | 72.1 µM (inactive) |  | 24.8 µM (inactive) | 19.5 µM (inactive) | 63 µM (inactive) | 53.8 µM (inactive) | 22.8 µM (inactive) |  | 30.2
